Reference: patent US8580965B2, “Substituted sulfonamide compounds” (Gruenenthal GmbH, priority 2006, dated 2013)
Where a name gives a salt, the structure may show the parent alone.

What was measured:
[1] = biological target: T1, human B1R receptor (bradykinin 1 receptor) (Homo sapiens, UniProt P46663); experiment: FLIPR Ca2+ assay (Fluo-4) on CHO K1 cells stably transfected with the human B1R gene; % activation and % inhibition at 10 μM; format: cell-based; conditions: test substance 10 μM; CHO K1 hB1R cells; Ca2+ inflow after 0.5 nM Lys-Des-Arg9-bradykinin; hydrochloride
T1 construct: host or cells: CHO K1 cells (hB1R cells)
T1 sequence (P46663 1-353): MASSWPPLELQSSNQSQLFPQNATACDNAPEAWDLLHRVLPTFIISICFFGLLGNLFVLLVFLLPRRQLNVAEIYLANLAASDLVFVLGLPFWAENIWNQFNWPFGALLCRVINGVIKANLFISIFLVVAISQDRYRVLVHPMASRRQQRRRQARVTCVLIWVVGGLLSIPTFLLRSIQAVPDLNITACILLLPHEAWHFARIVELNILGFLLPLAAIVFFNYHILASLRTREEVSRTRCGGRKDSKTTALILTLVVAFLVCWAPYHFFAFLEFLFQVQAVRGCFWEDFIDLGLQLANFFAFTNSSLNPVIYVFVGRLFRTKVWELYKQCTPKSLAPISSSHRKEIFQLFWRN
In short: (§1)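 Fluo-4 Ca2+ flux on FLIPR in stable hB1R or rB1R CHO K1 lines, two additions. Agonism: 10 µM compound versus 0.5 nM Lys-Des-Arg9-BK (human) or 100 nM Des-Arg9-BK (rat); antagonism: same agonists applied 10 min later, suppression expressed against maximum achievable inhibition.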

[2] = biological target: T2, B1R receptor of the rat (bradykinin 1 receptor) (Rattus norvegicus, UniProt P97583); experiment: FLIPR Ca2+ assay (Fluo-4) on CHO K1 cells stably transfected with the B1R gene of the rat; % activation and % inhibition at 10 μM; format: cell-based; conditions: test substance 10 μM; CHO K1 rB1R cells; Ca2+ inflow after 100 nM Des-Arg9-bradykinin; hydrochloride
T2 construct: host or cells: CHO K1 cells (rB1R cells)
T2 sequence (P97583 1-337): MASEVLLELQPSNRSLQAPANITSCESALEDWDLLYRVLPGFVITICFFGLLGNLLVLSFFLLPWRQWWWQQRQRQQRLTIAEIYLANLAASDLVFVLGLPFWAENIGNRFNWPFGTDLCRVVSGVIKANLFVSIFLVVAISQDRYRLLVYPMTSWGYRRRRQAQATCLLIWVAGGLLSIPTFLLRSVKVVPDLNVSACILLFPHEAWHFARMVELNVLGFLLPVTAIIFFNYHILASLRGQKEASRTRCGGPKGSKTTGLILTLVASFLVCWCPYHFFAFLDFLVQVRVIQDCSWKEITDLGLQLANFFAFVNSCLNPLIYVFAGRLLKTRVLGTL
In short: as §1

[3] = tested on: formalin-induced nociceptive reaction (phase 2); experiment: Formalin test mouse (phase 2, chronic pain component); format: in vivo; conditions: phase 2 (21 to 24 min after formalin), i.v., 10 mg/kg, 5 min before formalin, change in percent compared with vehicle control
Protocol: The formalin test (Dubuisson, D. and Dennis, S. G., 1977, Pain, 4, 161-174) represents a model for both acute and chronic pain. By means of a single formalin injection into the dorsal side of a rear paw, a biphasic nociceptive reaction is induced in freely mobile test animals; the reaction is detected by observing three behavior patterns which are clearly distinguishable from one another. The reaction is two-phase: phase 1=immediate reaction (duration up to 10 min., shaking of the paw, licking), phase 2=late reaction (after a rest phase; likewise shaking of the paw, licking; duration up to 60 min.). […] In the studies described here, the chronic pain component (phase 2) has been evaluated.
Formalin in a volume of 20 μl and a concentration of 1% is administered subcutaneously into the dorsal side of the right rear paw of each animal. The specific changes in behavior, such as lifting, shaking or licking of the paw (score 3, Dubuisson & Dennis, 1977), are observed and recorded in the observation period of 21 to 24 min following the formalin injection.
The behavior of the animals after administration of the substance (n=10 per dose of substance) was compared with a control group which received vehicle (n=10). Based on the quantification of the pain behavior, the activity of the test substance in the formalin test was determined as the change, in percent, compared with the control. […]

## COc1cc(C)c(S(=O)(=O)N2CCCCC2COCC(=O)N2CCC(O)(c3cccnc3)CC2)c(C)c1 (stereo not drawn) [Example 87, 1-(4′-hydroxy-3′,4′,5′,6′-tetrahydro-2′H-[3,4′]bipyridinyl-1′-yl)-2-[1-(4-methoxy-2,6-dimethyl-phenylsulfonyl)-piperidin-2-ylmethoxy]-ethanone; hydrochloride]
[1]
  B1R antagonism, human [10 μM] % inhibition: 101.8%
[2]
  B1R antagonism, rat [10 μM] % inhibition: 101.93%
[3]
  Substance action: antinociception: 23% antinociception
